{"source": "paper PMC8748916", "about": "“Microbial enzymes induce colitis by reactivating triclosan in the mouse gastrointestinal tract” (Nature Communications, 2022)", "key": {"[1]": {"system": "Fp2-L1 GUS mutant proteins", "experiment": "Catalytic efficiency assay, wild-type and mutant Fp2-L1 GUS", "type": "biochemical, F. prausnitzii", "details": "Fig. 3h, replicates 1-3"}, "Rh3 GUS mutants": {"system": "Rh3 GUS mutants", "experiment": "Catalytic efficiency assay, wild-type and mutant Rh3 GUS", "type": "biochemical, R. hominis", "details": "Fig. 3j, replicates 1-3"}, "[2]": {"system": "enzymes extracted from human fecal samples", "experiment": "In fimo inhibition assay (TCS-G processing by human fecal extracts)", "type": "biochemical", "details": "for % Inhibition: Fig. 4d, triplicate", "protocol": "Fecal extracts were prepared and proteomic analysis was performed exactly as previously described. In total, 10 g of frozen human fecal sample was thawed and added to 25 mL extraction buffer (25 mM HEPES, 25 mM NaCl pH 6.5 with Roche Complete protease inhibitor tablet) and 0.5 g autoclaved garnet beads. The mixture was vortexed until homogenous and centrifuged at low speed (300 × g for 5 min at 4 °C). The supernatant was decanted. In all, 25 mL buffer was added to the pellet and the vortex and centrifugation steps repeated. The supernatants from these steps were then combined and centrifuged at low speed for two more cycles. The resultant supernatant was sonicated twice using 1 s pulses for 1.5 min and the lysate was centrifuged at 17,000 × g for 20 min in a Beckman Coulter J2-HC centrifuge. The decanted lysate was then washed with several exchanges of extraction buffer to remove metabolites and small molecules. Total protein concentration was quantitated using a Bradford assay. The fecal lysate was diluted to 1 mg/mL concentration and snap-frozen in small aliquots.\nReaction mixtures contained 5 µL fecal extract (0.1 mg/mL final), 10 µL TCS-G (200 µM final), 5 µL GUSi (10, 1, or 0.1 µM final), and 30 µL assay buffer (25 mM HEPES, 25 mM NaCl, pH 6.5). Reactions were quenched at 30 min with 50 µL 25% trichloroacetic acid. Samples were centrifuged 20 min at 16,000 × g in a tabletop centrifuge, and the supernatant was analyzed via the same HPLC method described for the catalytic efficiency assay. Controls contained 5 µL buffer in place of GUSi. Inhibition was calculated using Eq. 1."}, "MC38 cells": {"system": "MC38 cells", "experiment": "Cell proliferation assay (MTT)", "type": "cell-based, mouse", "protocol": "Mouse (MC38) or human (Caco2 and HCT-116) intestinal cells were grown in DMEM medium fortified with 10% FBS (EMD Millipore Corporation). The cells were seeded in 96-well plates, then treated with GUSi or vehicle (0.2% v/v DMSO) for 24 h. Cell viability was determined using an MTT assay.\nFig. S14. GUSi treatment has little effect on the proliferation of mouse or human intestinal cells in vitro.\nMouse (MC38) or human (Caco2 and HCT-116) intestinal cells were treated with GUSi or vehicle (0.2% v/v\nDMSO) for 24 h, then cell viability was analyzed using a MTT assay. The data are mean ± SEM, n = 5-6 per"}, "[3]": {"system": "epithelial cells in the ileum, proximal or distal colon", "design": "method as in PMID 32170007", "details": "proximal or distal colon of the treated mice; cited from earlier work"}, "mouse fecal bacteria": {"system": "mouse fecal bacteria", "experiment": "Conversion of TCS-G to TCS by anaerobically cultured mouse fecal bacteria in vitro", "type": "in vitro ADME", "details": "from TCS-G, replicates"}, "[4]": {"design": "method as in earlier work", "details": "human, ref 32,33 (reply to reviewers), cited from earlier work"}}, "note": "“And” between values parts separate entries of the source, which are not always exact repeats. Equal values may be shown once."}
{"compound": "O=C(O)C1OC(Oc2cc(Cl)ccc2Oc2ccc(Cl)cc2Cl)C(O)C(O)C1O", "note": "(stereo not shown) [TCS-G, triclosan-glucuronide]", "values": [{"measurement": "Catalytic efficiency", "setting": "[1]; Enzyme: Fp 2-L1 M362A", "value": "344000 M⁻¹ s⁻¹ and 207500 M⁻¹ s⁻¹ and 364600 M⁻¹ s⁻¹"}, {"measurement": "Catalytic efficiency", "setting": "[1]; Enzyme: Fp 2-L1 M454A", "value": "1202500 M⁻¹ s⁻¹ and 1255200 M⁻¹ s⁻¹ and 1243800 M⁻¹ s⁻¹"}, {"measurement": "Catalytic efficiency", "setting": "[1]; Enzyme: Fp 2-L1 M455A", "value": "1203800 M⁻¹ s⁻¹ and 1137600 M⁻¹ s⁻¹ and 1168500 M⁻¹ s⁻¹"}, {"measurement": "Catalytic efficiency", "setting": "[1]; Enzyme: Fp 2-L1 Y479A", "value": 0, "unit": "M⁻¹ s⁻¹"}, {"measurement": "Catalytic efficiency", "setting": "Rh3 GUS mutants; Enzyme: Rh3 F406A", "value": "147440 M⁻¹ s⁻¹ and 148640 M⁻¹ s⁻¹ and 151680 M⁻¹ s⁻¹"}, {"measurement": "Catalytic efficiency", "setting": "Rh3 GUS mutants; Enzyme: Rh3 L635STOP", "value": 0, "unit": "M⁻¹ s⁻¹"}, {"measurement": "Catalytic efficiency", "setting": "Rh3 GUS mutants; Enzyme: Rh3 Y430A", "value": 0, "unit": "M⁻¹ s⁻¹"}]}
{"compound": "C1CCc2c(c(N3CCOCC3)nc3sc4c(N5CCNCC5)nnnc4c23)C1", "note": "[GUSi, UNC10201652]", "values": [{"measurement": "effect on TCS-G processing by fecal enzyme mixtures ex vivo", "setting": "[2]; human fecal extracts, GUSi 10, 1 or 0.1 µM", "value": "inhibited TCS-G processing"}, {"measurement": "% Inhibition", "setting": "[2]; human fecal sample F3, 0.1 uM GUSi", "value": "26.0315% and 22.661% and 26.9159%"}, {"measurement": "% Inhibition", "setting": "[2]; human fecal sample F3, 1 uM GUSi", "value": "55.0638% and 49.4467% and 55.1636%"}, {"measurement": "% Inhibition", "setting": "[2]; human fecal sample F3, 10 uM GUSi", "value": "63.3658% and 70.4225% and 80.8879%"}, {"measurement": "% Inhibition", "setting": "[2]; human fecal sample M1, 0.1 uM GUSi", "value": "43.1579% and 25.7515% and 43.5009%"}, {"measurement": "% Inhibition", "setting": "[2]; human fecal sample M1, 1 uM GUSi", "value": "77.2204% and 69.1166% and 76.6073%"}, {"measurement": "% Inhibition", "setting": "[2]; human fecal sample M1, 10 uM GUSi", "value": "87.4836% and 92.1188% and 91.6683%"}, {"measurement": "% Inhibition", "setting": "[2]; human fecal sample M3, 1 uM GUSi", "value": "44.8187% and 47.2169% and 47.9485%"}, {"measurement": "% Inhibition", "setting": "[2]; human fecal sample M3, 10 uM GUSi", "value": "84.9872% and 79.6161% and 93.8804%"}, {"measurement": "effect on cell growth (MTT)", "setting": "MC38 cells; 24-h treatment, concentration up to 10 µM", "value": "little effect"}, {"measurement": "Cell proliferation (Fig. S14)", "setting": "MC38 cells; MC38, concentration 1, replicates", "value": "97.1748 and 94.9589 and 98.929 and 107.192 and 94.0356 and 103.315"}, {"measurement": "Cell proliferation (Fig. S14)", "setting": "MC38 cells; MC38, concentration 2, replicates", "value": "103.453 and 99.2983 and 100.314 and 103.361 and 103.084 and 108.023"}, {"measurement": "Cell proliferation (Fig. S14)", "setting": "MC38 cells; MC38, concentration 5, replicates", "value": "85.9108 and 74.139 and 84.9875 and 91.9121 and 86.7418 and 84.0181"}, {"measurement": "Cell proliferation (Fig. S14)", "setting": "MC38 cells; MC38, concentration 10, replicates", "value": "68.784 and 87.3419 and 84.2489 and 91.7736 and 82.9102"}, {"measurement": "effect on the proliferation of epithelial cells", "setting": "[3]", "value": "no effect"}]}
{"compound": "Oc1cc(Cl)ccc1Oc1ccc(Cl)cc1Cl", "note": "[TCS, Triclosan]", "values": [{"measurement": "TCS formed", "setting": "mouse fecal bacteria", "value": "17.00 pmol and 16.49 pmol and 18.41 pmol"}, {"measurement": "plasma concentrations of TCS (TCS plus TCS-G)", "setting": "[4]; after weeks of daily use of TCS-containing toothpaste", "value": "90–1,000 nM"}, {"measurement": "plasma concentrations of TCS (TCS plus TCS-G), baseline", "setting": "[4]; before use of TCS-containing toothpaste", "value": "0.03 to 2.7", "unit": "nM"}]}
